This passage reports TGI and GI50 results from PubChem BioAssay (NCI).

Some test systems named below: OVCAR-8 ovarian; NCI-H23 lung; MOLT-4 leukemia; 786-0 renal; OVCAR-3 ovarian; HT29 colon; SN12C renal; SK-MEL-5 melanoma; SNB-75 CNS; COLO 205 colon; SW-620 colon; LOX IMVI melanoma; MALME-3M melanoma; UACC-257 melanoma; SK-MEL-28 melanoma; MDA-MB-435.
Holding throughout (assay): NCI tumour cell line growth inhibition, 48 h

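Cultured in 96-well plates, cells were exposed to test compound for 48 hours across five concentrations. Abbreviation: GI50, concentration required for 50% inhibition of growth. TGI is the concentration that stops growth completely.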

On to `C=C1CC(Cn2ccc(=O)[nH]c2=O)(c2ccc(-c3ccccc3)cc2)OC1=O` (stereo not drawn), for which the TGI turned out to be 11.1 µM with OVCAR-8 ovarian; 8.4 µM in the test on NCI-H23 lung; 5.26 µM with MOLT-4 leukemia; 1.67 µM with 786-0 renal; 4.03 µM with OVCAR-3 ovarian; 3.27 µM in the test on HT29 colon. In addition, the TGI worked out at 21.3 µM with SN12C renal; 2.39 µM in the test with SK-MEL-5 melanoma; 26.7 µM in the test on SNB-75 CNS; 0.338 µM in the test on COLO 205 colon; 0.941 µM with SW-620 colon; 1.07 µM in the test with LOX IMVI melanoma. Also, the TGI stood at 3.42 µM with MALME-3M melanoma, 3.88 µM in the test with UACC-257 melanoma, 5.34 µM in the test with SK-MEL-28 melanoma and 6.12 µM in the test on MDA-MB-435.

Consider `CC(=O)NC1=C(C)C(=O)c2c(nc3n2CCC3OC(=O)c2ccccc2)C1=N` (stereo not drawn), for which the TGI is 8.5 µM in the test with OVCAR-8 ovarian; 3.83 µM in the test on NCI-H23 lung; 5.24 µM in the test on MOLT-4 leukemia; 3.65 µM in the test on 786-0 renal; 5.71 µM in the test with OVCAR-3 ovarian; 3.96 µM in the test with HT29 colon. For the same compound, the TGI was found to be 3.16 µM with SN12C renal; 2.83 µM in the test on SK-MEL-5 melanoma; 5.27 µM in the test on SNB-75 CNS; 3.27 µM in the test with COLO 205 colon; 5.17 µM in the test with SW-620 colon; 1.33 µM in the test with LOX IMVI melanoma. Moreover, the TGI came to 2.45 µM with MALME-3M melanoma, 3.47 µM in the test on UACC-257 melanoma, 3.45 µM with SK-MEL-28 melanoma and 0.319 µM in the test with MDA-MB-435.

`Oc1ccc(Cl)cc1-c1[nH]c(=S)nc(-c2ccccc2)c1Cl`: the TGI was more than 100 µM in the test on OVCAR-8 ovarian; more than 100 µM with NCI-H23 lung; more than 100 µM with MOLT-4 leukemia; more than 100 µM with 786-0 renal; more than 100 µM with OVCAR-3 ovarian; more than 31.6 µM in the test on HT29 colon. Further, the TGI is more than 100 µM in the test with SN12C renal; more than 100 µM in the test with SK-MEL-5 melanoma; 70.1 µM with SNB-75 CNS; more than 100 µM with COLO 205 colon; more than 100 µM with SW-620 colon; more than 100 µM in the test on LOX IMVI melanoma. Besides, the TGI in the test on MALME-3M melanoma, in the test on UACC-257 melanoma, in the test with SK-MEL-28 melanoma and with MDA-MB-435 was more than 100 µM throughout.

With `COC(=O)Nc1nc2ccc(Oc3ccc4nc(NC(=O)OC)[nH]c4c3)cc2[nH]1`, the TGI in the test with OVCAR-8 ovarian was more than 100 µM; in the test with NCI-H23 lung, more than 100 µM; in the test on MOLT-4 leukemia it was more than 32.8 µM; with 786-0 renal it was more than 49.6 µM; in the test on OVCAR-3 ovarian it was 0.744 µM; in the test with HT29 colon, more than 100 µM. In addition, the TGI is more than 100 µM with SN12C renal; 4.19 µM in the test with SK-MEL-5 melanoma; 2.87 µM with SNB-75 CNS; 7.59 µM in the test on COLO 205 colon; 11.2 µM with SW-620 colon; more than 100 µM in the test on LOX IMVI melanoma. Also, the TGI is more than 100 µM in the test with MALME-3M melanoma, more than 100 µM with UACC-257 melanoma, more than 20.4 µM in the test on SK-MEL-28 melanoma and 0.166 µM with MDA-MB-435.

In the case of `Clc1cc(OCc2nn3c(Cc4ccccc4)nnc3s2)ccc1OCc1nn2c(Cc3ccccc3)nnc2s1`, the TGI with OVCAR-8 ovarian is 62.9 µM; with NCI-H23 lung it was more than 100 µM; with MOLT-4 leukemia, more than 100 µM; with 786-0 renal, 56.8 µM; in the test on OVCAR-3 ovarian, more than 100 µM; in the test on HT29 colon, more than 100 µM. The TGI is more than 100 µM in the test with SN12C renal; more than 100 µM in the test on SK-MEL-5 melanoma; 39 µM in the test on SNB-75 CNS; more than 100 µM in the test with COLO 205 colon; more than 100 µM with SW-620 colon; more than 100 µM with LOX IMVI melanoma. Further, the TGI with MALME-3M melanoma, in the test on UACC-257 melanoma, in the test on SK-MEL-28 melanoma and in the test with MDA-MB-435 was more than 100 µM each time.

Consider `C#CCn1c(=O)ccn(/C(=C\C(=O)OCC)C(=O)OCC)c1=O`, for which the TGI in the test on OVCAR-8 ovarian was 5.42 µM; with NCI-H23 lung it was 31.8 µM; in the test on MOLT-4 leukemia it was more than 27.7 µM; in the test with 786-0 renal it was 6.05 µM; in the test with OVCAR-3 ovarian, 16.3 µM; in the test on HT29 colon it was 4.4 µM. Also, the TGI in the test with SN12C renal is more than 58 µM; in the test on SK-MEL-5 melanoma it was 46.1 µM; with SNB-75 CNS, 39.9 µM; in the test with COLO 205 colon, 3.17 µM; in the test on SW-620 colon, 5.37 µM; in the test with LOX IMVI melanoma it was more than 50.5 µM. For the same compound, the TGI in the test on MALME-3M melanoma came to 4.99 µM; in the test on UACC-257 melanoma it was 29.5 µM; in the test with SK-MEL-28 melanoma, 25.7 µM; in the test with MDA-MB-435, 22.9 µM. The GI50 in the test on COLO 205 colon is 1.53 µM.

In the case of `Nc1nc(Cl)c(N)c(NCC2(CO)CC(Cc3ccccc3)C2)n1` (stereo not drawn), the TGI with OVCAR-8 ovarian was more than 100 µM; in the test on NCI-H23 lung, more than 100 µM; in the test with MOLT-4 leukemia, more than 78.8 µM; in the test with 786-0 renal, more than 100 µM; in the test with OVCAR-3 ovarian, more than 100 µM; in the test on HT29 colon it was more than 100 µM. The TGI with SN12C renal is more than 100 µM; with SK-MEL-5 melanoma it was 18.5 µM; in the test with SNB-75 CNS, more than 100 µM; with COLO 205 colon, more than 100 µM; in the test on SW-620 colon, more than 100 µM; in the test with LOX IMVI melanoma it was more than 100 µM. Besides, the TGI is more than 100 µM with MALME-3M melanoma, more than 86.3 µM with UACC-257 melanoma, more than 100 µM in the test on SK-MEL-28 melanoma and 60 µM in the test on MDA-MB-435.
